According to US20240208901A1, “Deuterated 3,3'-Diselenodipropionic Acid (DSePA) and Its Use as an Anticancer or Radioprotective Agent” (Secretary, Department of Atomic Energy, priority 2022, published 2024):

Experiments:
[1] = tested on: human NSCLC cells such as A549, H1975 and H3122; assay: MTT assay, human NSCLC cells (summary statement); assay type: cell-based; details: read-out: half maximum concentration (IC50) for growth inhibition
Source text: 3,3′-Disclenodipropionic acid-D8 (D-DSePA, chemical structure shown in FIG. 1) was synthesized by reacting freshly prepared sodium selenide (Na2Se2) and 3-bromopropionic acid-D4 in D2O solvent with 42% yield. The synthesized D-DSePA was purified and characterized by NMR spectroscopy and mass spectrometry. The molecular structure of D-DSePA has been established by single-crystal X-ray diffraction analysis. The treatment of D-DSePA and un-deuterated DSePA inhibited the growth of human NSCLC cells such as A549, H1975 and H3122 with half maximum concentration (IC50) in the range of 5-50 μM by MTT assay. […] Finally, at identical treatment concentration, D-DSePA offered better radioprotection to non-cancerous WI38 cells with a dose modification factor (DMF) of 1.16±0.05 as compared to un-deuterated DScPA with DMF of 1.12±0.03.
MTT Assay—To evaluate the anti-proliferative effect of D-DScPA and DScPA, Cells (˜5×10^3) suspended in 100 μl of complete culture medium were seeded in each well of 96 well plates. […] The percentage (%) cytotoxicity was calculated from the decrease in absorbance at 570 nm of treated groups as compared to that of control group. […] The therapeutic index was calculated by normalizing the IC50 concentration of D-DSePA/DSePA in non-cancerous cells to that in cancerous cells.

A549 cells = assay: Clonogenic assay in A549 cells; assay type: cell-based, human; details: Homo sapiens, 168 h, seven days treatment, read-out: IC50 to inhibit growth (survival fraction)
Protocol: Further, clonogenic assay is considered as the gold standard method for evaluating the anticancer activity of any compound and is also a good indicator of the in vivo efficacy of any anticancer compound. Therefore, the therapeutic index of DSePA and D-DSePA in A549/WI-38 cells was also validated by employing the clonogenic assay. For this, A549/WI-38 cells were treated with the varying concentrations (0.1-2 μM)/(1-500 μM) of DSePA/D-DSePA for seven days and the survival fraction was calculated by counting the number of surviving clones (FIG. 11A). The plot of survival fraction verses the concentration of DScPA/D-DSCPA was used to estimate the IC50 of above compounds to inhibit the growth of A549/WI-38 cells. […] This clearly confirmed that deuteration of DScPA reduced its toxicity in normal cells without compromising its efficacy in cancer cells. […]
Clonogenic assay—Clonogenic assay was performed according to the method reported previously. […] After 7 days, colonies were fixed with absolute methanol for 5 min, stained with 0.5% crystal violet for 5 min, washed with distilled water to remove excess stain and counted manually under a stereo microscope. […] The plating efficiency and the survival fraction under irradiated and drug treated conditions were calculated using following formulae: […]
The plating efficiency of A549 and WI38 cells was calculated by seeding ˜300 and ˜500 cells respectively. […]

O=C(O)CC[Se][Se]CCC(=O)O [DSePA, 3,3′-diselenodipropionic acid] gave an IC50 [1] of 5 to 50 µM and an IC50 (A549 cells) of 1.2 ± 0.01 µM.
